Test results published in publication PMC10414684, “Novel integrated computational AMP discovery approaches highlight diversity in the helminth AMP repertoire” (PLOS Pathogens, 2023).
In brackets after ≈: the same amount, converted by molar mass. Counter-ions that a name gives are not always drawn. Like-named read-outs stand apart in the source and are kept apart here. No end group written: not given here.

Legend:
[1] = tested on: A. baumannii DSM 30007; test: Minimum inhibitory concentration, microbroth dilution; assay type: cell-based, Acinetobacter baumannii; conditions: 5x10^5 CFU/ml, 37°C, 18–24 h, visible growth; for MIC: read-out: MIC A. baumannii DSM 30007 (-), μM in brackets; for MIC A. baumannii DSM 30007 (-): peptides 512–0.25μg/ml, >70% purity (Cecropin P1 >95%), Ciprofloxacin 32–0.02μg/ml
Experimental: (§1) Prioritised helminth AMP-LPs were synthesised at >70% purity (Genosphere Biotechnologies). […] Peptides and control antibiotics [Ciprofloxacin (for gram-negative species; Sigma-Aldrich) and Vancomycin hydrochloride (for gram-positive species; Sigma-Aldrich)] were dissolved in sterile ultrapure water at a concentration of 5.12mg/ml. Minimum inhibitory concentrations (MICs) were determined for gram-positive and gram-negative bacterial isolates (see Table 3 for species) using microbroth dilution assays as described previously. Briefly, a single colony from each bacterial species was inoculated in cation-adjusted Mueller Hinton Broth (MHB) and grown for 18–24 hours at 37°C with shaking (225rpm) before being adjusted to a final bacterial density of 5x10^5 colony forming units (CFU) per ml. Peptides and Vancomycin hydrochloride were diluted using sterile MHB in sterile U-bottom 96 well polypropylene microplates (Greiner Bio One, UK) to give a concentration gradient ranging from 512–0.25μg/ml. Ciprofloxacin was further diluted in sterile MHB to give a concentration gradient ranging from 32–0.02μg/ml. Microplates were incubated at 37°C for 18–24 hours. Plates were assessed for visible growth and the MIC was defined as the lowest concentration of peptide or antibiotic that inhibited visible growth of a bacterial culture after an 18–24-hour incubation. MIC data were validated by positive and negative control antibiotic MIC data for each bacterial isolate.

[2] = tested on: E. coli K12; test: as above; assay type: cell-based, Escherichia coli; conditions: 5x10^5 CFU/ml, 37°C, 18–24 h, visible growth; for MIC: read-out: MIC E. coli K12 (-), μM in brackets; for MIC E. coli K12 (-): peptides 512–0.25μg/ml, >70% purity (Cecropin P1 >95%), Ciprofloxacin 32–0.02μg/ml
Experimental: as §1

[3] = tested on: P. aeruginosa PA01; test: as above; assay type: cell-based, Pseudomonas aeruginosa; conditions: 5x10^5 CFU/ml, 37°C, 18–24 h, visible growth; for MIC: read-out: MIC P. aeruginosa PA01 (-), μM in brackets; for MIC P. aeruginosa PA01 (-): peptides 512–0.25μg/ml, >70% purity (Cecropin P1 >95%), Ciprofloxacin 32–0.02μg/ml
Experimental: as §1

[4] = tested on: E. faecalis JH2-2; test: microbe, parasite or virus in culture; assay type: cell-based, Enterococcus faecalis
Experimental: as §1

[5] = tested on: S. aureus RN4220; test: microbe, parasite or virus in culture; assay type: cell-based, Staphylococcus aureus; conditions: for MIC S. aureus RN4220 (+): peptides and Vancomycin hydrochloride 512–0.25μg/ml, peptides >70% purity (Cecropin P1 >95%)
Experimental: as §1

[6] = tested on: S. aureus EMRSA-15; test: microbe, parasite or virus in culture; assay type: cell-based, Staphylococcus aureus
Experimental: as §1

[7] = microbroth dilution, cation-adjusted MHB, 5x10^5 CFU/ml, 37°C, 18–24 h, visible growth, peptides and Vancomycin hydrochloride 512–0.25μg/ml, peptides >70% purity (Cecropin P1 >95%)
[8] = Methicillin-Sensitive, microbroth dilution, cation-adjusted MHB, 5x10^5 CFU/ml, 37°C, 18–24 h, visible growth
[9] = Methicillin-resistant, microbroth dilution, cation-adjusted MHB, 5x10^5 CFU/ml, 37°C, 18–24 h, visible growth, peptides and Vancomycin hydrochloride 512–0.25μg/ml, peptides >70% purity (Cecropin P1 >95%)

| Compound | MIC A. baumannii DSM 30007 (-) ([1]; cation-adjusted MHB) | MIC E. coli K12 (-) ([2]; cation-adjusted MHB) | MIC P. aeruginosa PA01 (-) ([3]; cation-adjusted MHB) | MIC E. faecalis JH2-2 (+) [4, 7] | MIC S. aureus RN4220 (+) [5, 8] | MIC S. aureus EMRSA-15 (+) [6, 9] | further results |
| --- | --- | --- | --- | --- | --- | --- | --- |
| O=C(O)c1cn(C2CC2)c2cc(N3CCNCC3)c(F)cc2c1=O [Ciprofloxacin, reference compound] | 1 µg/mL (≈ 3.02 µM) | 0.0625 µg/mL (≈ 0.189 µM) | 0.5 µg/mL (≈ 1.51 µM) |  |  |  | MIC ([1]; Acinetobacter baumannii, DSM30007, cation-adjusted MHB): 3 µM (≈ 0.994 µg/mL); MIC ([2]; Escherichia coli, K12, cation-adjusted MHB): 0.2 µM (≈ 0.0663 µg/mL); MIC ([3]; Pseudomonas aeruginosa, PA01, cation-adjusted MHB): 2 µM (≈ 0.663 µg/mL) |
| CN[C@H](CC(C)C)C(=O)N[C@H]1C(=O)N[C@@H](CC(N)=O)C(=O)N[C@H]2C(=O)N[C@H]3C(=O)N[C@H](C(=O)N[C@H](C(=O)O)c4cc(O)cc(O)c4-c4cc3ccc4O)[C@H](O)c3ccc(c(Cl)c3)Oc3cc2cc(c3O[C@@H]2O[C@H](CO)[C@@H](O)[C@H](O)[C@H]2O[C@H]2C[C@](C)(N)[C@H](O)[C@H](C)O2)Oc2ccc(cc2Cl)[C@H]1O [Vancomycin hydrochloride, reference compound] |  |  |  | 2 µg/mL | 1 µg/mL | 2 µg/mL | MIC ([4]; Enterococcus faecalis, JH22, read-out: MIC E. faecalis JH2-2 (+), μM in brackets): 1 µM; MIC ([5]; Staphylococcus aureus, RN4220, read-out: MIC S. aureus RN4220 (+), μM in brackets): 0.7 µM; MIC ([6]; Staphylococcus aureus, EMRSA15, read-out: MIC S. aureus EMRSA-15 (+), μM in brackets): 1 µM |
| AVAHVALKLATSPVGKVALNAMVPGAGTVLGVAAKHHGMVKKLVRV [nAMP-LP-224, nematode AMP-like peptide selected for synthesis and MIC screening] | / (/ indicates that there was no activity at the highest concentration of peptide used (512μg/ml)) | / (/ indicates that there was no activity at the highest concentration of peptide used (512μg/ml)) | / (/ indicates that there was no activity at the highest concentration of peptide used (512μg/ml)) | / (/ indicates that there was no activity at the highest concentration of peptide used (512μg/ml)) | / (/ indicates that there was no activity at the highest concentration of peptide used (512μg/ml)) | / (/ indicates that there was no activity at the highest concentration of peptide used (512μg/ml)) |  |
| DGCPKRVAIAVLKAPYKIFKKEANKGLFKLADKIHGVRY [fAMP-LP-123, flatworm AMP-like peptide selected for synthesis and MIC screening] | / (/ indicates that there was no activity at the highest concentration of peptide used (512μg/ml)) | / (/ indicates that there was no activity at the highest concentration of peptide used (512μg/ml)) | / (/ indicates that there was no activity at the highest concentration of peptide used (512μg/ml)) | / (/ indicates that there was no activity at the highest concentration of peptide used (512μg/ml)) |  | / (/ indicates that there was no activity at the highest concentration of peptide used (512μg/ml)) |  |
| EYLRKVKDAGAGKAKGGGAPGAESKSGKKSGSAETAASGGAKKGKKK [nAMP-LP-98, nematode AMP-like peptide selected for synthesis and MIC screening] | / (/ indicates that there was no activity at the highest concentration of peptide used (512μg/ml)) | / (/ indicates that there was no activity at the highest concentration of peptide used (512μg/ml)) | / (/ indicates that there was no activity at the highest concentration of peptide used (512μg/ml)) | / (/ indicates that there was no activity at the highest concentration of peptide used (512μg/ml)) | / (/ indicates that there was no activity at the highest concentration of peptide used (512μg/ml)) | / (/ indicates that there was no activity at the highest concentration of peptide used (512μg/ml)) |  |
| FDKNLLKKGKKSSAYEKHPISRRVLRFE [nAMP-LP-764, nematode AMP-like peptide selected for synthesis and MIC screening] | / (/ indicates that there was no activity at the highest concentration of peptide used (512μg/ml)) | / (/ indicates that there was no activity at the highest concentration of peptide used (512μg/ml)) | / (/ indicates that there was no activity at the highest concentration of peptide used (512μg/ml)) | / (/ indicates that there was no activity at the highest concentration of peptide used (512μg/ml)) | / (/ indicates that there was no activity at the highest concentration of peptide used (512μg/ml)) | / (/ indicates that there was no activity at the highest concentration of peptide used (512μg/ml)) |  |
| FGYWSGGGHGGGHGIHGGGGGHHGWH [nAMP-LP-235, nematode AMP-like peptide selected for synthesis and MIC screening] | / (/ indicates that there was no activity at the highest concentration of peptide used (512μg/ml)) | / (/ indicates that there was no activity at the highest concentration of peptide used (512μg/ml)) | / (/ indicates that there was no activity at the highest concentration of peptide used (512μg/ml)) | / (/ indicates that there was no activity at the highest concentration of peptide used (512μg/ml)) | / (/ indicates that there was no activity at the highest concentration of peptide used (512μg/ml)) | / (/ indicates that there was no activity at the highest concentration of peptide used (512μg/ml)) |  |
| GAGRWRANRRANRRRFARRLRRNQRRAAQKRRAHARRHQRNLRRAARKIRRIQRR[nh2] (GAGRWRANRRANRRRFARRLRRNQRRAAQKRRAHARRHQRNLRRAARKIRRIQRR-NH2) [nAMP-LP-298, arginine-rich nematode AMP-like peptide conserved across four Clade 9/V gastrointestinal parasites] | 32 µg/mL | 64 µg/mL | 64 µg/mL | 64 µg/mL | 32 µg/mL | 64 µg/mL | MIC ([1]; cation-adjusted MHB): 5 µM; MIC E. faecalis JH2-2 (+), μM in brackets ([4]; microbroth dilution, cation-adjusted MHB, 5x10^5 CFU/ml, 37°C, 18–24 h, visible growth): 9 µM; MIC ([2]; cation-adjusted MHB): 9 µM; MIC S. aureus RN4220 (+), μM in brackets [5, 8]: 5 µM; MIC S. aureus EMRSA-15 (+), μM in brackets ([6]; Methicillin-resistant, microbroth dilution, cation-adjusted MHB, 5x10^5 CFU/ml, 37°C, 18–24 h, visible growth): 9 µM; MIC ([3]; cation-adjusted MHB): 9 µM |
| GKKDEGKEVVDDKAGDKKGMKKSFRRQQGWIWIYW [nAMP-LP-1231, nematode AMP-like peptide selected for synthesis and MIC screening] | / (/ indicates that there was no activity at the highest concentration of peptide used (512μg/ml)) | / (/ indicates that there was no activity at the highest concentration of peptide used (512μg/ml)) | / (/ indicates that there was no activity at the highest concentration of peptide used (512μg/ml)) | / (/ indicates that there was no activity at the highest concentration of peptide used (512μg/ml)) | / (/ indicates that there was no activity at the highest concentration of peptide used (512μg/ml)) | / (/ indicates that there was no activity at the highest concentration of peptide used (512μg/ml)) |  |
| QWWGGRGGGRWRGGWRGGWRGRGRGWW [nAMP-LP-104] |  |  |  |  | 256 µg/mL |  | MIC E. faecalis JH2-2 (+) ([4]; JH2-2): 256 µg/mL; MIC S. aureus EMRSA-15 (+) ([6]; EMRSA-15): 256 µg/mL |
